Laboratory results as given in patent US20160158280A1, “A METHOD FOR ORGAN ARREST, PROTECTION AND PRESERVATION AND REDUCING TISSUE INJURY” (priority 2013, published 2016).
“And” between values parts separate entries of the source, which are not always exact repeats. Equal values may be shown once.

How the values were obtained:
human NK(1) receptor = human NK(1) receptor (Homo sapiens, UniProt P25103); details: cited from earlier work
humans = details: oral and/or intravenous 10, 25, 50, and 100 mg/kg body weight; cited from earlier work
[1] = 400 mg daily tablets; cited from earlier work
[2] = system: isolated guinea-pig mesenteric artery; assay: Isolated guinea-pig mesenteric artery relaxation (pressure myograph, videomicroscopy); details: for relaxation of isolated intact mesenteric artery: AVP-constricted, 0.001 to 1 mM luminal or abluminal; for abluminal versus luminal relaxation: intact artery, adenosine: at 10 μM and 100 μM
Procedure: Male guinea pigs (250-300 g) were anesthetised and placed in a cradle and the abdomen opened. Second order mesenteric artery branches were isolated and mounted in a pressure myograph (see FIG. 4) under constant pressure of 60 mmHg and perfusion (luminal flow) of 100 uL/min with Krebs-Henseleit buffer (37° C.). Artery diameter was continuously measured using videomicroscopy (see FIG. 4). For the relaxation/vasodilation experiments arteries were equilibrated and then constricted with 10^−8 M arginine vasopressin (AVP). Adenosine, lidocaine or adenosine-lidocaine together were administered 2) luminally and 2) abluminally and concentration curves were obtained. Stock solutions of adenosine and lidocaine alone or adenosine-lidocaine combined were made in deionized water to 20 mM. A range of volumes were pipetted to provide contact concentrations with the vessel lumen or outer wall that ranged from 0.001 to 1 mM. At the end of experiments, arteries were dilated using calcium-free solution to obtain 100% relaxation. A number of arteries were denuded by introducing 5 ml air into the lumen with flow rate 1000 μl/min. The air outflow was then clamped until the intraluminal pressure reached 70 mmHg, flow rate was reduced to 2 μl/min and the vessel remained pressurized for 10 minutes

[3] = cited from earlier work

Chain of human NK(1) receptor (P25103 whole entry): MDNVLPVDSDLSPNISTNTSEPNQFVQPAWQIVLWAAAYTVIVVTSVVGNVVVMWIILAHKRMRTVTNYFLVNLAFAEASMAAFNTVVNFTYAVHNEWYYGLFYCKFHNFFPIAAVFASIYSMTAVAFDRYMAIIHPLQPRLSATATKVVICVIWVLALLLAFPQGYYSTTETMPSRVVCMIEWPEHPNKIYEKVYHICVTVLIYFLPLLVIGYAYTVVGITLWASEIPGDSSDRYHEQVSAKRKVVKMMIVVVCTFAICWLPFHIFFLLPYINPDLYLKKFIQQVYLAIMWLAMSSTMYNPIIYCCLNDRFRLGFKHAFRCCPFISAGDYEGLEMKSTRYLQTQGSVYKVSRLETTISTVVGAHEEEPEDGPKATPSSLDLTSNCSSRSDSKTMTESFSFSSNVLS

SMILES	relaxation of isolated intact mesenteric artery [2]	relaxation of mesenteric artery ([2]; endothelium absent (denuded))	relaxation of mesenteric artery ([2]; endothelium present)	abluminal versus luminal relaxation [2]	further results
Cc1cccc(C)c1NC(=O)C[C@H]1CCN(C(=O)c2cc(C(F)(F)F)cc(C(F)(F)F)c2)[C@@H](Cc2ccccc2)C1.O=C(O)C[C@H](O)C(=O)O (relative stereo) [R116301, (2R-trans)-4-[1-[3,5-bis(trifluoromethyi)benzoyl]-2-(phenylmethyl)-4-piperidinyl]-N-(2,6-dimethylphenyl)-1-acetamide (S)-Hydroxybutanedioate]					selectivity toward NK(2) and NK(3) receptors (human NK(1) receptor): over 200 fold; Ki (human NK(1) receptor; human NK(1) receptor): 0.45 nM
NC(=O)c1ncn([C@@H]2O[C@H](CO)[C@@H](O)[C@H]2O)c1N [Acadesine, 5-amino-4-imidazole carboxamide ribonucleoside]					safety in humans (humans): safe in humans
OCCN(CCO)c1nc(N2CCCCC2)c2nc(N(CCO)CCO)nc(N3CCCCC3)c2n1 [Dipyridamole]					plasma level [1]: about 0.4 μg/ml and 0.8 μM
Nc1ncnc2c1ncn2[C@@H]1O[C@H](CO)[C@@H](O)[C@H]1O [adenosine]	increased relaxation	relaxed the mesenteric artery in a dose dependent manner	relaxed the mesenteric artery in a dose dependent manner	significantly more relaxation	half life in the blood [3]: about 10 seconds
CCN(CC)CC(=O)Nc1c(C)cccc1C [lidocaine]	failed to produce relaxation	relaxed the artery	did not significantly change mesenteric artery diameter	no significant difference	
